According to patent publication US20260285850A1, “SUBSTITUTED OXAZOLIDINONES AND IMIDAZOLINONES AS HERBICIDES” (FMC CORPORATION, priority 2023, published 2026):

Columns and labels:
Type in all cases: in vivo
[1] = test system: wheat (Triticum aestivum); experiment: Test A postemergence application, visual injury rating 0-100; conditions: 10 days
In short: (§1)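 Scale 0–100 (no effect to complete control), visual, versus untreated controls, read 10 days after application. Application: preemergence directed spray onto seeded loam–sand soil, or postemergence to young plants; formulation in non-phytotoxic solvent with surfactant.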

[2] = test system: galium (catchweed bedstraw, Galium aparine); experiment: as above; conditions: 10 days
In short: as §1

soybean (Glycine max) [3] = experiment: as above; conditions: 10 days
In short: as §1

[4] = test system: palmer (palmer amaranth, palmer pigweed, Amaranthus palmeri); experiment: as above; conditions: 10 days
In short: as §1

[5] = test system: horseweed (Erigeron canadensis); experiment: as above; conditions: 10 days
In short: as §1

[6] = test system: oat, wild (wild oat, Avena fatua); experiment: as above; conditions: 10 days
In short: as §1

corn (Zea mays) [7] = experiment: as above; conditions: 10 days
In short: as §1

[8] = test system: green foxtail (Setaria viridis); experiment: as above; conditions: 10 days
In short: as §1

[9] = test system: ryegrass, Italian (italian ryegrass, Lolium multiflorum); experiment: as above; conditions: 10 days
In short: as §1

[10] = test system: barnyardgrass (Echinochloa crus-galli); experiment: as above; conditions: 10 days
In short: as §1

kochia (Bassia scoparia) [11] = experiment: as above; conditions: 10 days
In short: as §1

[12] = test system: ragweed (common ragweed, Ambrosia artemisiifolia); experiment: as above; conditions: 10 days
In short: as §1

[13] = test system: blackgrass (Alopecurus myosuroides); experiment: as above; conditions: 10 days
In short: as §1

[14] = test system: wheat (Triticum aestivum); experiment: Test A preemergence soil spray, visual injury rating 0-100; conditions: 10 days, 0 = no effect, 100 = complete control
In short: as §1

soybean (Glycine max) [15] = experiment: as above; conditions: 10 days, 0 = no effect, 100 = complete control
In short: as §1

[16] = test system: palmer (palmer amaranth, palmer pigweed, Amaranthus palmeri); experiment: as above; conditions: 10 days, 0 = no effect, 100 = complete control
In short: as §1

[17] = test system: oat, wild (wild oat, Avena fatua); experiment: as above; conditions: 10 days, 0 = no effect, 100 = complete control
In short: as §1

corn (Zea mays) [18] = experiment: as above; conditions: 10 days, 0 = no effect, 100 = complete control
In short: as §1

[19] = test system: green foxtail (Setaria viridis); experiment: as above; conditions: 10 days, 0 = no effect, 100 = complete control
In short: as §1

[20] = test system: ryegrass, Italian (italian ryegrass, Lolium multiflorum); experiment: as above; conditions: 10 days, 0 = no effect, 100 = complete control
In short: as §1

[21] = test system: barnyardgrass (Echinochloa crus-galli); experiment: as above; conditions: 10 days, 0 = no effect, 100 = complete control
In short: as §1

kochia (Bassia scoparia) [22] = experiment: as above; conditions: 10 days, 0 = no effect, 100 = complete control
In short: as §1

[23] = test system: ragweed (common ragweed, Ambrosia artemisiifolia); experiment: as above; conditions: 10 days, 0 = no effect, 100 = complete control
In short: as §1

[24] = test system: blackgrass (Alopecurus myosuroides); experiment: as above; conditions: 10 days, 0 = no effect, 100 = complete control
In short: as §1

[25] = test system: barnyardgrass (Echinochloa crusgalli); experiment: Test B flooded paddy test, visual plant response rating 0-100; conditions: 250 g ai/ha, Flood, applied to paddy water, evaluated after 13 days
In short: (§2)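 Compounds applied to standing paddy water (3 cm above soil, maintained for the test duration) on 2-leaf-stage plants; visual rating vs controls at 13 days, greenhouse.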

rice (Oryza sativa) = experiment: as above; conditions: 250 g ai/ha, Flood, applied to paddy water, evaluated after 13 days
In short: as §2

[26] = test system: sedge, umbrella (small-flower umbrella sedge, Cyperus difformis); experiment: as above; conditions: 250 g ai/ha, Flood, applied to paddy water, evaluated after 13 days
In short: as §2

[27] = test system: ducksalad (Heteranthera limosa); experiment: as above; conditions: 250 g ai/ha, Flood, applied to paddy water, evaluated after 13 days
In short: as §2

[28] = 31 g ai/ha, postemergence, 0 = no effect, 100 = complete control
[29] = Postemergence, 125 g ai/ha, 0 is no effect, 100 is complete control

CCOC(=O)C1=CCC(NC(=O)C2(C)CN(c3cc(F)cc(F)c3)C(=O)O2)C1 (stereo not shown) [Compound 15]
Wheat plant response rating (0-100) [1, 28]: 90 | Wheat plant response rating (0 to 100 scale) [1, 29]: 90 | Galium plant response rating (0-100) [2, 28]: 80 | Galium plant response rating (0 to 100 scale) [2, 29]: 90 | Soybean plant response rating (0-100) (soybean (Glycine max) [3]; [28]): 60 | Soybean plant response rating (0 to 100 scale) (soybean (Glycine max) [3]; [29]): 70 | Amaranth, Palmer plant response rating (0-100) [4, 28]: 50 | Amaranth, Palmer / Pigweed, Palmer plant response rating (0 to 100 scale) [4, 29]: 90 | Horseweed plant response rating (0-100) [5, 28]: 0 | Horseweed plant response rating (0 to 100 scale) [5, 29]: 0 | Oat, Wild plant response rating (0-100) [6, 28]: 90 | Oat, Wild plant response rating (0 to 100 scale) [6, 29]: 90 | Corn plant response rating (0-100) (corn (Zea mays) [7]; [28]): 100 | Corn plant response rating (0 to 100 scale) (corn (Zea mays) [7]; [29]): 100 | Foxtail, Green plant response rating (0-100) [8, 28]: 90 | Foxtail, Green plant response rating (0 to 100 scale) [8, 29]: 90 | Ryegrass, Italian plant response rating (0-100) [9, 28]: 80 | Ryegrass, Italian plant response rating (0 to 100 scale) [9, 29]: 90 | Barnyardgrass plant response rating (0-100) [10, 28]: 100 | Barnyardgrass plant response rating (0 to 100 scale) [10, 29]: 100 | Kochia plant response rating (0-100) (kochia (Bassia scoparia) [11]; [28]): 70 | Kochia plant response rating (0 to 100 scale) (kochia (Bassia scoparia) [11]; [29]): 70 | Ragweed plant response rating (0-100) [12, 28]: 40 | Ragweed plant response rating (0 to 100 scale) [12, 29]: 50 | Blackgrass plant response rating (0-100) [13, 28]: 70 | Blackgrass plant response rating (0 to 100 scale) [13, 29]: 100 | Wheat plant response rating (0-100) ([14]; 31 g ai/ha): 50 | Wheat plant response rating (0 to 100 scale) ([14]; 125 g ai/ha): 90 | Soybean plant response rating (0-100) (soybean (Glycine max) [15]; 31 g ai/ha): 0 | Soybean plant response rating (0 to 100 scale) (soybean (Glycine max) [15]; 125 g ai/ha): 30 | Amaranth, Palmer plant response rating (0-100) ([16]; 31 g ai/ha): 50 | Amaranth, Palmer plant response rating (0 to 100 scale) ([16]; 125 g ai/ha): 100 | Oat, Wild plant response rating (0-100) ([17]; 31 g ai/ha): 0 | Oat, Wild plant response rating (0 to 100 scale) ([17]; 125 g ai/ha): 50 | Corn plant response rating (0-100) (corn (Zea mays) [18]; 31 g ai/ha): 20 | Corn plant response rating (0 to 100 scale) (corn (Zea mays) [18]; 125 g ai/ha): 60 | Foxtail, Green plant response rating (0-100) ([19]; 31 g ai/ha): 30 | Foxtail, Green plant response rating (0 to 100 scale) ([19]; 125 g ai/ha): 100 | Ryegrass, Italian plant response rating (0-100) ([20]; 31 g ai/ha): 80 | Ryegrass, Italian plant response rating (0 to 100 scale) ([20]; 125 g ai/ha): 90 | Barnyardgrass plant response rating (0-100) ([21]; 31 g ai/ha): 0 | Barnyardgrass plant response rating (0 to 100 scale) ([21]; 125 g ai/ha): 100 | Kochia plant response rating (0-100) (kochia (Bassia scoparia) [22]; 31 g ai/ha): 0 | Kochia plant response rating (0 to 100 scale) (kochia (Bassia scoparia) [22]; 125 g ai/ha): 90 | Ragweed plant response rating (0-100) ([23]; 31 g ai/ha): 0 | Ragweed plant response rating (0 to 100 scale) ([23]; 125 g ai/ha): 0 | Blackgrass plant response rating (0-100) ([24]; 31 g ai/ha): 0 | Blackgrass plant response rating (0 to 100 scale) ([24]; 125 g ai/ha): 40 | Plant response rating, Barnyardgrass (0 to 100 scale, 0 is no effect and 100 is complete control) [25]: 60 | Plant response rating, Rice (0 to 100 scale, 0 is no effect and 100 is complete control) (rice (Oryza sativa)): 65 | Plant response rating, Sedge, Umbrella (0 to 100 scale, 0 is no effect and 100 is complete control) [26]: 70 | Plant response rating, Ducksalad (0 to 100 scale, 0 is no effect and 100 is complete control) [27]: 80
